Test results reported in patent publication US10947196B2, “Beta adrenergic agonist and methods of using the same” (CURASEN THERAPEUTICS, INC., priority 2019, dated 2021).

target: β2 adrenergic receptors in human astrocytoma cells (1321N1) (Homo sapiens (Human), UniProt P07550); assay: cAMP HTRF assay in human astrocytoma cells (1321N1); assay type: cell-based; details: not given
Procedure: cAMP homogeneous time-resolved fluorescence (HTRF). Compound efficacy was determined using the cAMP Gs dynamic HTRF assay (Cisbio, catalog #62AM4PEC) largely following the manufacturer's instructions, also detailed below.
Compound preparation. […] Standard serial dilution curves were 10-point, 5-fold dilutions starting from a highest concentration of 10 μM. […] Assay plates were centrifuged at 500×g for 10 seconds. Compounds and IBMX were prepared at 2× final dose to compensate for addition of cells.
Cell preparation. 1× stimulation buffer, washing PBS (Dulbecco's phosphate-buffered saline, −Mg −Ca; Caisson Labs, catalog #PBL01), assay PBS (Dulbecco's phosphate-buffered saline, +Mg, +Ca; Caisson Labs, catalog #PBL02) and Versene (0.02% EDTA disodium salt solution in PBS without calcium or magnesium; Caisson Labs, catalog #EDL01) were pre-warmed to 37° C. Cells expressing beta-adrenergic receptor were washed in washing PBS to remove growth medium and then released from the surface by incubating with Versene for 5-10 minutes at 37° C. Cells were harvested using assay PBS, counted manually by hemocytometer or by an automated cell counter, pelleted by centrifugation (200×g, 5 minutes) and resuspended in 37° C. 1× stimulation buffer to a final density of 1.5×10^6 cells/mL. 5 μL of the suspended cell solution (7500 cell total) were added to all wells of the 384 well assay plate, the assay plate was covered with an Axygen® plate seal (Corning PCR-SP) and incubated in a humidified 37° C. environment supplemented with 5% CO2 for 30 minutes.
HTRF reagent addition, reading and data analysis. After 30 minutes of cell stimulation with test compound, the assay plates were centrifuged at 500×g for 10 seconds, and incubation was stopped with the addition of 5 μL cAMP-D2 acceptor, diluted 1:21 in detection and lysis buffer 2 (Cisbio 62CL2FDF) was added to all cells. Subsequently, 5 μL Anti-cAMP-Eu Donor, diluted 1:21 in detection and lysis buffer 2, was added to cells. Plates were sealed and reactions gently ‘vortexed’ at 900 rpm on a Heidolph Titramax 1000 for at least 30 minutes at room temperature. Plates were centrifuged again at 500×g for 10 seconds, and HTRF was measured using a Tecan Spark plate reader at 50 flashes per well. […] Potency estimates (EC50) were derived from the four-parameter nonlinear regression of the concentration-effect curve and an estimate of relative efficacy was determined by comparing the magnitude of the test compound HTRF signal window (min−max dose) with the signal window of the full agonist control, isoproterenol.

Chain of β2 adrenergic receptors in human astrocytoma cells (1321N1) (P07550 whole entry): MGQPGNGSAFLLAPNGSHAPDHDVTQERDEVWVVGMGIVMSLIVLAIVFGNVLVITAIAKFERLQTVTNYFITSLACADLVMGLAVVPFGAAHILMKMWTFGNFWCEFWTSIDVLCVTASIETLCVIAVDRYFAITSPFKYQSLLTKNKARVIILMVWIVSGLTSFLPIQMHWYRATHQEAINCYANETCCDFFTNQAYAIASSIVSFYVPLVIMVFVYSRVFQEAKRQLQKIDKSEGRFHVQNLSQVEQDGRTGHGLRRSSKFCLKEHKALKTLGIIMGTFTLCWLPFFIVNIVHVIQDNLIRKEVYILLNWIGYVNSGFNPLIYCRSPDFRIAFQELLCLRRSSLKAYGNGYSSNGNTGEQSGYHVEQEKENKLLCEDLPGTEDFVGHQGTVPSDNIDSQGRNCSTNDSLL

Compound | EC50
COc1ccc(C[C@@H](C)NC[C@H](O)c2cccnc2C2=CCCC2)cc1 [Compound 03-63] | > 1000 nM
COc1ccc(C[C@@H](C)NC[C@H](O)c2cccnc2C2CCCC2)cc1 [Compound 03-64] | 100 to 1000 nM

same assay, conditions: Endogenous receptor; 1321N1 cells

Compound | Average pEC50 [Receptor subtype: Endogenous; Cell type: 1321N1]
CC(C)(C)NC[C@H](O)c1cccnc1C1CC1 [Compound 03-54] | C (C = <7-6)

same assay, conditions: Endogenous receptor; 1321N1 cells; read-out: Average EC50 [Receptor subtype: Endogenous; Cell type: 1321N1]

Compound | EC50
CC(C)(C)NC[C@H](O)c1cccnc1C1CC1 [Compound 03-54] | 100 to 1000 nM

same assay, conditions: Endogenous receptor; 1321N1 cells; read-out: Average pEC50 [Receptor subtype: Endogenous; Cell type: 1321N1] (converted)

Compound | EC50
Cc1cccc([C@@H](O)CNC(C)(C)C)n1 [Compound 03-6] | 100 to 1000 nM
COc1ccc(C[C@@H](C)NC[C@H](O)c2cccnc2C)cc1 [Compound 03-66] | 100 to 1000 nM
Cc1ccc([C@@H](O)CNC(C)(C)C)c(C)n1 [Compound 03-67] | 10 to 100 nM
CC(C)(C)NC[C@H](O)c1cccnc1OC(F)(F)F [Compound 03-70] | 10 to 100 nM
CC(C)(C)NC[C@H](O)c1cccnc1OC1CC1 [Compound 03-71] | 10 to 100 nM
CC(C)(C)NC[C@H](O)c1cccnc1OC1CCC1 [Compound 03-72] | 10 to 100 nM
CC(C)(C)NC[C@H](O)c1cc(F)cnc1C1CCCC1 [Compound 03-80] | 100 to 1000 nM
CC(C)(C)NC[C@H](O)c1cc(F)cnc1C1=CCCC1 [Compound 03-89] | > 1000 nM
CC(C)(C)NC[C@H](O)c1cccc(-c2ccc[nH]2)n1 [Compound 03-95] | < 10 nM
CC(C)(C)NC[C@H](O)c1cccc(-n2nccn2)n1 [Compound 03-101] | 100 to 1000 nM
CC(C)(C)NC[C@H](O)c1cccc(-n2ccnn2)n1 [Compound 03-102] | 10 to 100 nM
CC(C)(CO)NC[C@H](O)c1cccc(C#N)n1 [Compound 03-104] | 100 to 1000 nM
CC(C)(C)NC[C@@H](O)c1ccnc(C#N)c1 [Compound 03-111] | 100 to 1000 nM
CC(C)(C)NC[C@H](O)c1cccc(C2CCOCC2)n1 [Compound 03-121] | < 10 nM
CC(C)(C)NC[C@H](O)c1cccc(-n2cccc2)n1 [Compound 03-123] | < 10 nM
CNc1cccc([C@H](O)CNC(C)(C)C)n1 [Compound 03-142] | > 1000 nM
CN(C)c1cccc([C@@H](O)CNC(C)(C)C)n1 [Compound 03-153] | 10 to 100 nM
CC(C)(C)NC[C@@H](O)c1cccc(C2CCC2)n1 [Compound 03-162] | 100 to 1000 nM
CC(C)(C)NCC(O)c1cc(C#N)cc(C(F)(F)F)n1 (centres unmarked) [Compound 03-181] | 100 to 1000 nM
CC(C)(C)NC[C@H](O)c1cccc(NC2CC2)n1 [Compound 03-189] | 10 to 100 nM

target: β2 adrenergic receptor (Homo sapiens (Human), UniProt P07550); assay: cAMP Gs dynamic HTRF assay, β2 expressing CHO cells; assay type: cell-based; details: Average pEC50 [Receptor subtype: B2-AR; Cell type: CHO-K1 (HitHunter)], B2-AR; CHO-K1 (HitHunter)
How it was run: (§1)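 Intracellular cAMP quantified by Eu-donor/d2-acceptor HTRF after 30 min compound exposure at 37° C in stimulation buffer with IBMX. Concentrations ran 10 μM top, 5-fold steps, 10 points. Cell lines: 1321N1 astrocytoma and CHO expressing β1 or β2; EC50 via four-parameter fit, relative efficacy against isoproterenol.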

Chain of β2 adrenergic receptor (P07550 whole entry, species assumed): as the sequence (P07550 whole entry) above

Compound | EC50
COc1ccc(C[C@@H](C)NC[C@H](O)c2cccnc2C2=CCCC2)cc1 [Compound 03-63] | 100 to 1000 nM
COc1ccc(C[C@@H](C)NC[C@H](O)c2cccnc2C2CCCC2)cc1 [Compound 03-64] | 100 to 1000 nM

same assay, conditions: B2-AR; CHO-K1 (HitHunter); read-out: Average pEC50 [Receptor subtype: B2-AR; Cell type: CHO-K1 (HitHunter)] (converted)

Compound | EC50
Cc1cccc([C@@H](O)CNC(C)(C)C)n1 [Compound 03-6] | 10 to 100 nM
CC(C)(C)NC[C@H](O)c1cccnc1C1CC1 [Compound 03-54] | 10 to 100 nM
COc1ccc(C[C@@H](C)NC[C@H](O)c2cccnc2C)cc1 [Compound 03-66] | < 10 nM
Cc1ccc([C@@H](O)CNC(C)(C)C)c(C)n1 [Compound 03-67] | < 10 nM
CC(C)(C)NC[C@H](O)c1cccnc1OC(F)(F)F [Compound 03-70] | 10 to 100 nM
CC(C)(C)NC[C@H](O)c1cccnc1OC1CC1 [Compound 03-71] | 10 to 100 nM
CC(C)(C)NC[C@H](O)c1cccnc1OC1CCC1 [Compound 03-72] | < 10 nM
CC(C)(C)NC[C@H](O)c1cc(F)cnc1C1CCCC1 [Compound 03-80] | 10 to 100 nM
CC(C)(C)NC[C@H](O)c1cc(F)cnc1C1=CCCC1 [Compound 03-89] | 100 to 1000 nM
CC(C)(C)NC[C@H](O)c1cccc(-c2ccc[nH]2)n1 [Compound 03-95] | < 10 nM
CC(C)(C)NC[C@H](O)c1cccc(-n2nccn2)n1 [Compound 03-101] | 10 to 100 nM
CC(C)(C)NC[C@H](O)c1cccc(-n2ccnn2)n1 [Compound 03-102] | 10 to 100 nM
CC(C)(CO)NC[C@H](O)c1cccc(C#N)n1 [Compound 03-104] | 100 to 1000 nM
CC(C)(C)NC[C@@H](O)c1ccnc(C#N)c1 [Compound 03-111] | 10 to 100 nM
CC(C)(C)NC[C@H](O)c1cccc(C2CCOCC2)n1 [Compound 03-121] | < 10 nM
CC(C)(C)NC[C@H](O)c1cccc(-n2cccc2)n1 [Compound 03-123] | < 10 nM
CNc1cccc([C@H](O)CNC(C)(C)C)n1 [Compound 03-142] | 100 to 1000 nM
CN(C)c1cccc([C@@H](O)CNC(C)(C)C)n1 [Compound 03-153] | < 10 nM
CC(C)(C)NC[C@@H](O)c1cccc(C2CCC2)n1 [Compound 03-162] | 10 to 100 nM
CC(C)(C)NCC(O)c1cc(C#N)cc(C(F)(F)F)n1 (centres unmarked) [Compound 03-181] | 100 to 1000 nM
CC(C)(C)NC[C@H](O)c1cccc(NC2CC2)n1 [Compound 03-189] | < 10 nM

same assay, conditions: B2-AR; CHO-K cells; read-out: Average EC50 [Receptor subtype: B2-AR; Cell type: CHO-K]

Compound | EC50
Cc1cccc([C@@H](O)CNC(C)(C)C)n1 [Compound 03-6] | 10 to 100 nM
CC(C)(C)NC[C@H](O)c1cccnc1C1CC1 [Compound 03-54] | 10 to 100 nM
CC(C)(C)NC[C@H](O)c1cccc(C2CCOCC2)n1 [Compound 03-121] | < 10 nM
CC(C)(C)NC[C@H](O)c1cccc(-n2cccc2)n1 [Compound 03-123] | < 10 nM
CNc1cccc([C@H](O)CNC(C)(C)C)n1 [Compound 03-142] | 100 to 1000 nM
CN(C)c1cccc([C@@H](O)CNC(C)(C)C)n1 [Compound 03-153] | < 10 nM
CC(C)(C)NC[C@@H](O)c1cccc(C2CCC2)n1 [Compound 03-162] | 10 to 100 nM
CC(C)(C)NCC(O)c1cc(C#N)cc(C(F)(F)F)n1 (centres unmarked) [Compound 03-181] | 100 to 1000 nM

target: β1-adrenergic receptor (Homo sapiens (Human), UniProt P08588); assay: cAMP Gs dynamic HTRF assay, β1 expressing CHO cells; assay type: cell-based; details: Average pEC50 [Receptor subtype: B1-AR; Cell type: CHO-K1 (HitHunter)], B1-AR; CHO-K1 (HitHunter)
How it was run: as §1

Chain of β1-adrenergic receptor (P08588 whole entry, species assumed): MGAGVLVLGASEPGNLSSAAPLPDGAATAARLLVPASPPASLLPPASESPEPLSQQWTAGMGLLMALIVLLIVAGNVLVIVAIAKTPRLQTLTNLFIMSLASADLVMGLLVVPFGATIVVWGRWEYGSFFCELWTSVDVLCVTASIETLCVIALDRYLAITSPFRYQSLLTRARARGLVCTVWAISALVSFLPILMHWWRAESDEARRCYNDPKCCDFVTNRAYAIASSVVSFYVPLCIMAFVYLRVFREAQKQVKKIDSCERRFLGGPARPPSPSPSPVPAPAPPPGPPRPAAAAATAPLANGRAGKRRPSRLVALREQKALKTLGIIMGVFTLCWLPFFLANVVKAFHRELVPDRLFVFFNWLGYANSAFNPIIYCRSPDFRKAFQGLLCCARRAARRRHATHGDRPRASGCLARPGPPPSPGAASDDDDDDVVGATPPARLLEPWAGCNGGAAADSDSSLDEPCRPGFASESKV

Compound | EC50
COc1ccc(C[C@@H](C)NC[C@H](O)c2cccnc2C2=CCCC2)cc1 [Compound 03-63] | > 1000 nM
COc1ccc(C[C@@H](C)NC[C@H](O)c2cccnc2C2CCCC2)cc1 [Compound 03-64] | > 1000 nM

same assay, conditions: B1-AR; CHO-K1 (HitHunter)

Compound | Average pEC50 [Receptor subtype: B1-AR; Cell type: CHO-K1 (HitHunter)]
CC(C)(C)NC[C@H](O)c1cccc(-n2cccc2)n1 [Compound 03-123] | A (A > 8)
CC(C)(C)NC[C@@H](O)c1cccc(C2CCC2)n1 [Compound 03-162] | D (D < 6)

same assay, conditions: B1-AR; CHO-K1 (HitHunter); read-out: Average pEC50 [Receptor subtype: B1-AR; Cell type: CHO-K1 (HitHunter)] (converted)

Compound | EC50
Cc1cccc([C@@H](O)CNC(C)(C)C)n1 [Compound 03-6] | 10 to 100 nM
CC(C)(C)NC[C@H](O)c1cccnc1C1CC1 [Compound 03-54] | 100 to 1000 nM
COc1ccc(C[C@@H](C)NC[C@H](O)c2cccnc2C)cc1 [Compound 03-66] | 10 to 100 nM
Cc1ccc([C@@H](O)CNC(C)(C)C)c(C)n1 [Compound 03-67] | 100 to 1000 nM
CC(C)(C)NC[C@H](O)c1cccnc1OC(F)(F)F [Compound 03-70] | 100 to 1000 nM
CC(C)(C)NC[C@H](O)c1cccnc1OC1CC1 [Compound 03-71] | 100 to 1000 nM
CC(C)(C)NC[C@H](O)c1cccnc1OC1CCC1 [Compound 03-72] | 10 to 100 nM
CC(C)(C)NC[C@H](O)c1cc(F)cnc1C1CCCC1 [Compound 03-80] | > 1000 nM
CC(C)(C)NC[C@H](O)c1cc(F)cnc1C1=CCCC1 [Compound 03-89] | > 1000 nM
CC(C)(C)NC[C@H](O)c1cccc(-c2ccc[nH]2)n1 [Compound 03-95] | < 10 nM
CC(C)(C)NC[C@H](O)c1cccc(-n2nccn2)n1 [Compound 03-101] | > 1000 nM
CC(C)(C)NC[C@H](O)c1cccc(-n2ccnn2)n1 [Compound 03-102] | 100 to 1000 nM
CC(C)(CO)NC[C@H](O)c1cccc(C#N)n1 [Compound 03-104] | 100 to 1000 nM
CC(C)(C)NC[C@@H](O)c1ccnc(C#N)c1 [Compound 03-111] | > 1000 nM
CC(C)(C)NC[C@H](O)c1cccc(C2CCOCC2)n1 [Compound 03-121] | 100 to 1000 nM
CNc1cccc([C@H](O)CNC(C)(C)C)n1 [Compound 03-142] | > 1000 nM
CN(C)c1cccc([C@@H](O)CNC(C)(C)C)n1 [Compound 03-153] | 10 to 100 nM
CC(C)(C)NCC(O)c1cc(C#N)cc(C(F)(F)F)n1 (centres unmarked) [Compound 03-181] | > 1000 nM
CC(C)(C)NC[C@H](O)c1cccc(NC2CC2)n1 [Compound 03-189] | 10 to 100 nM

same assay, conditions: B1-AR; CHO-K cells; read-out: Average EC50 [Receptor subtype: B1-AR; Cell type: CHO-K]

Compound | EC50
Cc1cccc([C@@H](O)CNC(C)(C)C)n1 [Compound 03-6] | 10 to 100 nM
CC(C)(C)NC[C@H](O)c1cccnc1C1CC1 [Compound 03-54] | 100 to 1000 nM
CC(C)(C)NC[C@H](O)c1cccc(C2CCOCC2)n1 [Compound 03-121] | 10 to 100 nM
CC(C)(C)NC[C@H](O)c1cccc(-n2cccc2)n1 [Compound 03-123] | < 10 nM
CNc1cccc([C@H](O)CNC(C)(C)C)n1 [Compound 03-142] | > 1000 nM
CN(C)c1cccc([C@@H](O)CNC(C)(C)C)n1 [Compound 03-153] | 10 to 100 nM
CC(C)(C)NC[C@@H](O)c1cccc(C2CCC2)n1 [Compound 03-162] | > 1000 nM
CC(C)(C)NCC(O)c1cc(C#N)cc(C(F)(F)F)n1 (centres unmarked) [Compound 03-181] | > 1000 nM
